Source: US5002932A, “Antiviral pharmaceutical compositions and method of treating herpes” (priority 1987, dated 1991)
Bridge positions count the residues as written; N and C are the ends. Square brackets hold non-standard residues; d marks the D form. Peptide text beside a SMILES is read from it. * marks the point of attachment. Ileψ(thiazoline)Cys = CC[C@H](C)[C@H](N)C1=N[C@H](C(=O)*)CS1; dOrn = NCCC[C@@H](N)C(=O)O

How the values were obtained:
HSV-2 (strain HG-52) = assay: Inhibition of HSV-2 replication in serum-starved BHK 21/C13 cells (cell culture technique, virus titration); type: cell-based; conditions: for PFU per cell for control/PFU per cell for agent: 30 hours post infection; for PFU PER CELL: infected BHK 21/C13 cells harvested 30 hours post infection, control 67.00
Description: This method in a modified form is exemplified hereinafter.
(a) Preparation of serum-starved cells: A medium composed of alpha medium (Gibco Canada Inc, Burlington, Ontario, Canada) and fetal calf serum (Gibco Canada Inc.), in a 9:1 volume ratio, was placed in tissue culture dishes (35 mm, A/S Nunc, Kamstrup, Denmark). The medium in each dish was seeded with BHK 21/C13 cells (1.5 ×10^6 for each dish). (BHK 21/C13 cells have been described by Y. Langelier and G. Buttin, J. Gen. Virol., 57, 21 (1981)). After 6 hours, the medium was replaced with a new medium composed of alpha medium and fetal calf serum (99.5:0.5 v/v). The resultant preparation was incubated at 37° C. for 4 days.
(b) Cell infection in BBMT medium* without serum: The incubation medium was removed from the cells. The cells were washed twice with alpha medium (without the serum) and once with the BBMT medium. The cells were then incubated at 37° C. in BBMT medium for two hours. A series of viral solutions were prepared from a stock of HSV-2 (strain HG-52, described by Langelier and Buttin, supra) and the appropriate choice and amounts of the agents to be tested, diluted with BBMT to give viral solutions having a multiplicity of infection of 0.02 plaque forming units (PFU) per cell. A control viral solution (without any agent) also was prepared. Each viral solution (250 μl) was added to duplicate dishes containing the previously prepared cells in BBMT medium. After one hour of incubation at 37° C. for virus absorption, the medium in each dish was removed by aspiration. The cells were washed twice with BBMT medium. Fresh BBMT medium (800 μl), with or without (control) the appropriate concentration of the test agent, was added to the dishes which were further incubated at 37° C. Every six hours, a concentrated solution of bacitracin in BBMT was added to the appropriate dishes to maintain the initial concentration of that agent.
*BBMT medium is described by P. Brazeau et al., Proc. Natl. Acad. Sci. USA, 79, 7909 (1982).
(c) Harvesting: At 30 hours post-infection, cells were detached with a rubber policeman and frozen at -80° C. until titration.
(d) Titration: Virus titration were performed according to the method of B. B. Wentworth and L. French, Proc. Soc. Exp. Biol. Med., 131, 588 (1969).
The following table is illustrative of the results obtained when acyclovir, bacitracin and combinations thereof were tested for activity according to the preceding method. Results are expressed in PFU per cell for infected cells harvested at 30 hours post infection. The lower the PFU per cell value, the greater the inhibitory effect on viral replication of the tested agent.

[1] = system: herpes simplex virus type 1 (HSV-1); conditions: bacitracin used alone; reported by Alarcon et al.; cited from earlier work

## CC[C@H](C)[C@H](N)C1=N[C@H](C(=O)N[C@@H](CC(C)C)C(=O)N[C@H](CCC(=O)O)C(=O)N[C@H](C(=O)N[C@H]2CCCCNC(=O)[C@H](CC(N)=O)NC(=O)[C@@H](CC(=O)O)NC(=O)[C@H](Cc3cnc[nH]3)NC(=O)[C@@H](Cc3ccccc3)NC(=O)[C@H]([C@@H](C)CC)NC(=O)[C@@H](CCCN)NC2=O)[C@@H](C)CC)CS1 [Bacitracin] ({Ileψ(thiazoline)Cys}-L[dE]IK[dOrn]I[dF]H[dD]N; lactam 4-C)
HSV-2 (strain HG-52); Bacitracin 0.25 mM
  PFU per cell for control/PFU per cell for agent: 62.0
  PFU PER CELL: 1.08 PFU per cell
HSV-2 (strain HG-52); Bacitracin 0.50 mM
  PFU per cell for control/PFU per cell for agent: 515.0
  PFU PER CELL: 0.13 PFU per cell
HSV-2 (strain HG-52); Bacitracin 0.75 mM
  PFU per cell for control/PFU per cell for agent: 4786.0
  PFU PER CELL: 0.014 PFU per cell
HSV-2 (strain HG-52); Bacitracin 1.00 mM
  PFU per cell for control/PFU per cell for agent: 8375.0
  PFU PER CELL: 0.008 PFU per cell
[1]
  activity against herpes simplex virus type 1 (HSV-1): inactive

## Nc1nc2c(ncn2COCCO)c(=O)[nH]1 [Acyclovir, 9-((2-hydroxyethoxy)methyl)guanine]
HSV-2 (strain HG-52); Acyclovir 0.50 μM
  PFU per cell for control/PFU per cell for agent: 3.96
  PFU PER CELL: 16.9 PFU per cell
HSV-2 (strain HG-52); Acyclovir 2.00 μM
  PFU per cell for control/PFU per cell for agent: 13.67
  PFU PER CELL: 4.9 PFU per cell
